In PubChem BioAssay (NCI):
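Results reflect a 48-hour exposure of cells in 96-well plates to compound at five concentrations. GI50 = concentration required for 50% inhibition of growth. TGI marks complete inhibition of growth.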

Legend:
Test in all cases: growth of human tumour cells (NCI), 48 h
SK-OV-3 ovarian = system: SK-OV-3 ovarian
MOLT-4 leukemia = system: MOLT-4 leukemia
SN12C renal = system: SN12C renal
A549 NSCLC = system: A549 NSCLC
SW-620 colon = system: SW-620 colon
SF-295 CNS = system: SF-295 CNS
MDA-MB-435 = system: MDA-MB-435
SNB-75 CNS = system: SNB-75 CNS
BT-549 breast = system: BT-549 breast
KM12 colon = system: KM12 colon
A498 renal = system: A498 renal
MALME-3M melanoma = system: MALME-3M melanoma
MCF7 breast = system: MCF7 breast
NCI-H226 lung = system: NCI-H226 lung
SNB-19 CNS = system: SNB-19 CNS
EKVX NSCLC = system: EKVX NSCLC
SK-MEL-2 melanoma = system: SK-MEL-2 melanoma
TK-10 renal = system: TK-10 renal
T-47D breast = system: T-47D breast
COLO 205 colon = system: COLO 205 colon
ACHN renal = system: ACHN renal
M14 melanoma = system: M14 melanoma
OVCAR-5 ovarian = system: OVCAR-5 ovarian
U251 CNS = system: U251 CNS
SF-268 CNS = system: SF-268 CNS
RPMI-8226 leukemia = system: RPMI-8226 leukemia
SK-MEL-5 melanoma = system: SK-MEL-5 melanoma
SF-539 CNS = system: SF-539 CNS
CAKI-1 renal = system: CAKI-1 renal
786-0 renal = system: 786-0 renal
HT29 colon = system: HT29 colon
IGROV1 ovarian = system: IGROV1 ovarian
CCRF-CEM leukemia = system: CCRF-CEM leukemia
OVCAR-8 ovarian = system: OVCAR-8 ovarian
UACC-62 melanoma = system: UACC-62 melanoma
DU-145 prostate = system: DU-145 prostate
HOP-62 NSCLC = system: HOP-62 NSCLC
LOX IMVI melanoma = system: LOX IMVI melanoma
MDA-MB-231 breast = system: MDA-MB-231 breast
K-562 leukemia = system: K-562 leukemia
HCC-2998 colon = system: HCC-2998 colon
SR leukemia = system: SR leukemia
SK-MEL-28 melanoma = system: SK-MEL-28 melanoma
HOP-92 NSCLC = system: HOP-92 NSCLC
UACC-257 melanoma = system: UACC-257 melanoma
HCT-15 colon = system: HCT-15 colon
NCI-H522 lung = system: NCI-H522 lung
PC-3 prostate = system: PC-3 prostate
NCI-H23 lung = system: NCI-H23 lung
HS 578T breast = system: HS 578T breast
HL-60(TB) leukemia = system: HL-60(TB) leukemia

In the case of `CSc1nn2c(-c3ccc4ccccc4c3)ccnc2c1C#N`, the GI50 (SK-OV-3 ovarian) is reported as 2200 nM, the TGI (SK-OV-3 ovarian) is reported as > 100000 nM and the GI50 (MOLT-4 leukemia) is reported as 668 nM. The TGI (MOLT-4 leukemia) was > 100000 nM, the GI50 (SN12C renal) was 857 nM and the TGI (SN12C renal) was > 100000 nM. The GI50 (A549 NSCLC) was 828 nM, the TGI (A549 NSCLC) was > 100000 nM and the GI50 (SW-620 colon) was 428 nM. For the same compound, the TGI (SW-620 colon) was > 100000 nM, the GI50 (SF-295 CNS) was 1780 nM and the TGI (SF-295 CNS) was > 100000 nM. For the same compound, the GI50 (MDA-MB-435) was 229 nM, the TGI (MDA-MB-435) was 641 nM and the GI50 (SNB-75 CNS) was 197 nM. The TGI (SNB-75 CNS) was 1510 nM, the GI50 (BT-549 breast) was 2290 nM and the TGI (BT-549 breast) was > 100000 nM. For the same compound, the GI50 (KM12 colon) was 490 nM, the TGI (KM12 colon) was > 100000 nM and the GI50 (A498 renal) was 176 nM. For the same compound, the TGI (A498 renal) was 897 nM, the GI50 (MALME-3M melanoma) was 663 nM and the TGI (MALME-3M melanoma) was 44500 nM. The GI50 (MCF7 breast) was 1300 nM, the TGI (MCF7 breast) was > 100000 nM and the GI50 (NCI-H226 lung) was 2810 nM. The TGI (NCI-H226 lung) was > 100000 nM, the GI50 (SNB-19 CNS) was 1220 nM and the TGI (SNB-19 CNS) was > 100000 nM. The GI50 (EKVX NSCLC) was 3040 nM, the TGI (EKVX NSCLC) was > 100000 nM and the GI50 (SK-MEL-2 melanoma) was 874 nM. The TGI (SK-MEL-2 melanoma) was > 100000 nM, the GI50 (TK-10 renal) was 5090 nM and the TGI (TK-10 renal) was > 100000 nM. For the same compound, the GI50 (T-47D breast) was 4050 nM, the TGI (T-47D breast) was > 100000 nM and the GI50 (COLO 205 colon) was 727 nM. The TGI (COLO 205 colon) was > 100000 nM, the GI50 (ACHN renal) was 1140 nM and the TGI (ACHN renal) was > 100000 nM. The GI50 (M14 melanoma) was 390 nM, the TGI (M14 melanoma) was 27400 nM and the GI50 (OVCAR-5 ovarian) was 5140 nM. The TGI (OVCAR-5 ovarian) was > 100000 nM, the GI50 (U251 CNS) was 989 nM and the TGI (U251 CNS) was > 100000 nM. The GI50 (SF-268 CNS) was 1290 nM, the TGI (SF-268 CNS) was > 100000 nM and the GI50 (RPMI-8226 leukemia) was 599 nM. For the same compound, the TGI (RPMI-8226 leukemia) was > 100000 nM, the GI50 (SK-MEL-5 melanoma) was 693 nM and the TGI (SK-MEL-5 melanoma) was > 100000 nM. The GI50 (SF-539 CNS) was 1300 nM, the TGI (SF-539 CNS) was 64800 nM and the GI50 (CAKI-1 renal) was 550 nM. For the same compound, the TGI (CAKI-1 renal) was > 100000 nM, the GI50 (786-0 renal) was 2110 nM and the TGI (786-0 renal) was > 100000 nM. For the same compound, the GI50 (HT29 colon) was 454 nM, the TGI (HT29 colon) was > 100000 nM and the GI50 (IGROV1 ovarian) was 763 nM. For the same compound, the TGI (IGROV1 ovarian) was > 100000 nM, the GI50 (CCRF-CEM leukemia) was 7510 nM and the TGI (CCRF-CEM leukemia) was > 100000 nM. The GI50 (OVCAR-8 ovarian) was 944 nM, the TGI (OVCAR-8 ovarian) was > 100000 nM and the GI50 (UACC-62 melanoma) was 439 nM. The TGI (UACC-62 melanoma) was 6510 nM, the GI50 (DU-145 prostate) was 6990 nM and the TGI (DU-145 prostate) was > 100000 nM. The GI50 (HOP-62 NSCLC) was 1090 nM, the TGI (HOP-62 NSCLC) was > 100000 nM and the GI50 (LOX IMVI melanoma) was 754 nM. The TGI (LOX IMVI melanoma) was > 100000 nM, the GI50 (MDA-MB-231 breast) was 1110 nM and the TGI (MDA-MB-231 breast) was 5880 nM. For the same compound, the GI50 (K-562 leukemia) was 306 nM, the TGI (K-562 leukemia) was > 100000 nM and the GI50 (HCC-2998 colon) was 6020 nM. For the same compound, the TGI (HCC-2998 colon) was > 100000 nM, the GI50 (SR leukemia) was 343 nM and the TGI (SR leukemia) was > 100000 nM. The GI50 (SK-MEL-28 melanoma) was 1160 nM, the TGI (SK-MEL-28 melanoma) was > 100000 nM and the GI50 (HOP-92 NSCLC) was 1710 nM. The TGI (HOP-92 NSCLC) was 6550 nM, the GI50 (UACC-257 melanoma) was 6930 nM and the TGI (UACC-257 melanoma) was > 100000 nM. For the same compound, the GI50 (HCT-15 colon) was 390 nM, the TGI (HCT-15 colon) was > 100000 nM and the GI50 (NCI-H522 lung) was 442 nM. The TGI (NCI-H522 lung) was > 100000 nM, the GI50 (PC-3 prostate) was 2980 nM and the TGI (PC-3 prostate) was > 100000 nM. For the same compound, the GI50 (NCI-H23 lung) was 2040 nM, the TGI (NCI-H23 lung) was > 100000 nM and the GI50 (HS 578T breast) was 1050 nM. The TGI (HS 578T breast) was > 100000 nM, the GI50 (HL-60(TB) leukemia) was 668 nM and the TGI (HL-60(TB) leukemia) was > 100000 nM.
